Test results taken from patent US7074807B2, “Compositions and methods for inducing cell death” (Georgetown University, priority 1998, dated 2006).

Experiments:
PCI-04A cells = test: Apoptosis assay (annexin V-FITC/propidium iodide flow cytometry); conditions: 10 mM, PCI-04A
Experimental: FIGS. (7A1–7A3), (7B1–7B2), (7C1–7C3), (7D1–7D2), (7E1–7E3), (7F1–7F2). […] Cells were grown in serum-free medium overnight in T-25 flasks and treated with tempol (10 mM) or tempo (10 mM) for various times, trypsinized, and then resuspended in 200 ul 1× binding buffer as described in experimental procedures. The cell suspension was double-stained with annexin V-FITC and propidium iodide and analyzed by flow cytometry. Background signal was determined by comparison with double-stained, single-stained, or unstained control cells. (7A1–7A3), (7C1–7C3), and (7E1–7E3) are cytograms showing a relative distribution of viable (V), apoptotic (A), and necrotic (N) cells at 2 h following tempol or tempo treatment of MDA-MB 231 cells (A), PCI-04A cells (C), and PC-3 cells (E). (7B1–7B3), (7D1–7D2), and (7F1–7F2) are time course analyses of MDA-MB 231 cells (B), PCT-04A cells (D), and PC-3 cells (F). 100,000 cells were analyzed at each time point in triplicate (B) or quadruplicate (D and F). Solid bars, 1% ethanol, striped bars, 10 mM tempol, empty bars, 10 mM tempo. […] Data shown are representative from three to four independent experiments. (7B1–7B2), Time course analysis of MDA-MB 231 cells undergoing apoptosis (annexin V-FITC staining) (7B1), or necrosis (propidium iodide staining) (7B2). Values shown are mean±s.d. of triplicate determinations per time point in each treatment category, and representative of three to four independent experiments. […] (7D1–7D2), Time course analysis of PCI-04A cells undergoing apoptosis (annexin V-FITC staining) (7D1), or necrosis (propidium iodide staining) (7D2). Values shown are mean±s.d. of quadruplicate determinations per time point in each treatment category. […] (7F1–7F2), Time course analysis of PC-3 cells undergoing apoptosis (annexin V-FITC staining) (7F1), or necrosis (propidium iodide staining) (7F2). Values shown are mean±s.d. of quadruplicate determinations per time point in each treatment category. Control/C, cells treated with 1% ethanol for 2 h.
Apoptosis Assay—ApoAlert Annexin V apoptosis detection system (Clontech Lab Inc., Palo Alto, Calif.) was used to measure the relative distribution of apoptotic and necrotic cells. Briefly, cells were seeded at a density of 1×10^6 cells per 25 cm^2 tissue culture flask in medium containing 10% FBS overnight, followed by washing twice in serum-free medium. Cells were maintained overnight in serum-free medium and exposed to tempol (10 mM) or tempo (10 mM) for various times. This was followed by rinsing twice with serum-free medium prior to trypsinization, dilution in two volumes of serum-free medium, and centrifugation at 10,000× g. The cell pellet was washed once with PBS and resuspended in 200 ul of 1× binding buffer. The cell suspension was double-labeled with fluorescein isothiocyanate (FITC)-labeled annexin V (10 ul) and propidium iodide (PI) (10 ul) according to the manufacturer's instructions. Unlabeled cells or untreated cells labeled with either FITC-annexin V or PI, or double-labeled served as internal controls for the background signal. The intensity of the dye uptake by cells was detected using FACStar plus Flow Cytometer (Becton Dickerson, Lincoln Park, N.J.), and data were analyzed using Reproman True Facts software (Seattle, Wash.). Viable cells were FITC−/PI−, apoptotic cells were FITC+/PI−, and necrotic cells were FITC+/PI+.

MDA-MB 231 cells = test: Protein tyrosine phosphorylation (anti-PY immunoprecipitation/immunoblot); format: cell-based, human; conditions: 10 mM, 15 min to 2 h
Experimental: FIG. 2. Effects of tempol and tempo on protein tyrosine phosphorylation. Subconfluent cultures were grown in serum-free medium overnight, followed by treatment with tempol (10 mM) or tempo (10 mM) for indicated times and lysis. Normalized protein contents (1 mg) were immunoprecipitated with agarose-conjugated anti-PY MAb, and then immunoblotted with anti-PY MAb. Data shown is representative of two independent experiments. UT, untreated cells grown overnight in serum-free medium.
Cell Culture, Treatments with Tempol and Tempo, and Preparation of Cell Lysates—MDA-MB 231 human breast cancer cells were grown to near confluence in 75 cm^2 tissue culture flasks in Improved Minimum Essential Medium (IMEM) (Cellgro) containing 10% fetal bovine serum (FBS) and 2 mM L-glutamine in a humidified atmosphere of 5% CO2: 95% air at 37° C. Cells were trypsinized and plated into a 150 mm tissue culture dish (two dishes per flask) overnight in medium containing 10% FBS followed by two washes with phosphate buffer saline (PBS). […]
Immunoprecipitation and Immunoblotting—Whole cell lysate (1 mg) was immunoprecipitated with the appropriate agarose-conjugated antibody (1 ug/ml of lysis buffer) overnight at 4° C. with constant agitation. […] The bands of interest were quantified by ImageQuant software version 3.3 (Molecular Dynamics Personal Densitometer, Sunnyvale, Calif.). […]

Compound	apoptotic cells (A) (PCI-04A cells; 2 h) [%]	viable cells (V) (PCI-04A cells; 2 h) [%]	apoptosis and necrosis (PCI-04A cells; 2 h post-treatment)	protein tyrosine phosphorylation (MDA-MB 231 cells)
CC1(C)CCCC(C)(C)N1[O] [tempo, 2,2,6,6-tetramethylpiperidine-N-oxyl]	48.35	18.61	significant level of apoptosis and necrosis	conspicuous increase
CC1(C)CC(O)CC(C)(C)N1[O] [tempol, 4-hydroxy-tempo, reference compound]	5.44	–	–	minimal protein tyrosine phosphorylation
